Read-outs that look alike come from different tables or passages of the source.
What was measured:
[1] = Pharmacokinetics of four ginsenosides in rat plasma after oral administration of PQ-AG and PQ extracts (UPLC-MS/MS); format: in vivo; settings: male SD rats, n = 6, mean ± SD; for AUC: male, SD, po
Description: Chromatographic analysis was performed on a Waters Acquity UPLC system (Waters Corp., Milford, MA, USA). An ACQUITY UPLC BEH C18 (100 × 2.1 mm, 1.7 μm) column was used for all analytes. The column temperature was at 35°C. The mobile phase was composed of formic acid aqueous solution (A, 0.1%) and acetonitrile (B) at a gradient elution of 25% B at 0–0.5 min, 25%–50% B at 0.5–2.0 min, 50–60% B at 2.0–5.0 min, 60–25% B at 5.0–5.5 min, and 25% B at 5.5–7.0 min, with a flow rate of 0.2 mL/min.
MS detection was performed using the Xevo Triple Quadruple MS (Waters Corp.) equipped with an ESI source in both positive and negative ionization modes. The experimental parameters were set as follows: CV 2.80 kV; desolvation temperature 350°C; source temperature […]; cone gas flow 50 L/h; and desolvation gas flow 650 L/h. The detection was carried out using the MRM scan mode. All experimental data were collected in centroid mode using Masslynx 4.1 software (Waters Corp., Milford, USA), and postacquisition quantitative analysis was conducted using Target Lynx program (Waters Corp., Milford, USA).
Plasma specimens (200 μL) were mixed with IS solution (20 μL, 720 ng/mL) in an Eppendorf tube and centrifuged at 4, 000 rpm for 15 min at 4°C. Then, the supernatant was removed from plasma sample. Hydrochloric acid (4 μL) was added into 200 μL plasma sample, and then, the mixture was vortexed for 1 min. Waters OASIS HLB SPE C18 columns (Waters, USA) were used to remove the proteins in plasma samples, and it was preactivated by 3 mL methanol and 3 mL water. Then, 2 mL of 100% methanol was used to wash the column, and the eluate was collected and dried under nitrogen gas (45°C). Subsequently, 100 μL of 100% methanol was used to redissolve the residues, followed by centrifugation at 13, 000 rpm for 15 min at 4°C. Before UPLC-MS/MS analysis, the sample was finally filtered through a 0.22 μm membrane filter.
DAS 3.2 software (Mathematical Pharmacology Professional Committee of China, Shanghai, China, 2011) was applied for the analysis of concentration-time data to investigate the pharmacokinetic parameters of four ginsenosides in various groups. Data were presented as the mean ± SD (standard deviation) with triplicate measurements. A significance level was set at P < 0.05.
Male SD rats were randomly and evenly divided into two groups (n = 6 per group) in pharmacokinetic studies. To evaluate the compatible effect of AG upon PQ treatment, rats were given PQ at a dosage of 0.54 g/kg (equivalent to the amount of raw drug 0.54 g) in the PQ group. PQ-AG was combined with an equal proportion to prepare the mixed extract. The oral dosage in rats was 1.08 g/kg (equivalent to the amount of the raw drug including 0.54 g AG and 0.54 g PQ) in the PQ-AG group. Blood samples were collected at specific time points of 0, 0.25, 0.5, 1.0, 1.5, 2.0, 4.0, 6.0, 8.0, 12.0, 16.0, 24.0, and 48.0 h. All the plasma samples were obtained by centrifuging the blood samples at 3, 500 rpm for 10 min, then labeled and frozen at −80°C prior to analysis.

[2] = Stability of the ginsenosides in rat plasma (QC samples); format: in vitro ADME; settings: for Re (%) Postpreparation / Recovery (%) Postpreparation: autosampler 4°C for 12 h; for Re (%) Short term / Recovery (%) Short term / Re (%) Freeze-thaw cycles / Recovery (%) Freeze-thaw cycles: rat plasma; for Re (%) Short term / Recovery (%) Short term: 1 month at −80°C; for Re (%) Freeze-thaw cycles / Recovery (%) Freeze-thaw cycles: three freeze-thaw cycles at −80°C
Description: The standard stock solution was prepared in methanol with four ginsenosides at the final concentration of 1.14 mg/mL for Rb1, 0.10 mg/mL for Rb2, 0.78 mg/mL for Rd, and 1.58 mg/mL for Re. The working standard solution at required concentration was obtained by continuously diluting the stock solution. The IS stock solution was also prepared with methanol at a final concentration of 720 ng/mL. Calibration samples were prepared by mixing solutions of standard mixture, internal standard, and methanol with rat blank plasma at the final concentrations of 3.6, 7.2, 35.6, 71.2, 142.4, 284.8, 569.5, and 1, 139.0 ng/mL for Rb1, 1.6, 3.2, 6.3, 31.3, 62.5, 125.0, 250.0, and 500.0 ng/mL for Rb2, 1.2, 2.4, 4.9, 24.4, 48.8, 97.6, 195.1, and 390.2 ng/mL for Rd, and 2.5, 4.9, 9.9, 49.3, 98.6, 197.1, 394.3, and 788.5 ng/mL for Re. QC samples were also prepared with the same method at low, middle, and high concentrations (7.2, 142.4, and 911.4 ng/mL for Rb1, 3.2, 62.5, and 400.0 ng/mL for Rb2, 2.4, 48.8, and 312.2 ng/mL for Rd, 5.0, 98.6, and 630.8 ng/mL for Re). All solutions were stored at 4°C. The stability of the four analytes was determined by exposing plasma samples to QC at three concentration levels in six replicates. Samples were stored at −80°C for 1 month to assess the short-term storage stability. Freeze-thaw stability was performed after three freeze-thaw cycles at −80°C during three consecutive days. To evaluate the postpreparative stability, extracted QC samples were kept in the autosampler (4°C) for 12 h before analysis. The stability assessment of these samples was calibrated with freshly prepared standard as previously described.

[3] = PQ group: oral PQ extract 0.54 g/kg
[4] = PQ-AG group: oral PQ-AG extract 1.08 g/kg
[5] = 0.54 g/kg, PQ group: oral PQ extract 0.54 g/kg, read-out: AUC0⟶t
[6] = 0.54 g/kg, PQ group: oral PQ extract 0.54 g/kg, read-out: AUC0⟶∞
[7] = 1.08 g/kg, PQ-AG group: oral PQ-AG extract 1.08 g/kg, read-out: AUC0⟶t
[8] = 1.08 g/kg, PQ-AG group: oral PQ-AG extract 1.08 g/kg, read-out: AUC0⟶∞
[9] = extracted high QC (911.4 Rb1, 400.0 Rb2, 312.2 Rd, 630.8 Re ng/mL)
[10] = extracted low QC (7.2 Rb1, 3.2 Rb2, 2.4 Rd, 5.0 Re ng/mL)
[11] = extracted middle QC (142.4 Rb1, 62.5 Rb2, 48.8 Rd, 98.6 Re ng/mL)
[12] = high QC (911.4 Rb1, 400.0 Rb2, 312.2 Rd, 630.8 Re ng/mL)
[13] = low QC (7.2 Rb1, 3.2 Rb2, 2.4 Rd, 5.0 Re ng/mL)
[14] = middle QC (142.4 Rb1, 62.5 Rb2, 48.8 Rd, 98.6 Re ng/mL)

| Cmax [1, 3] [ng/mL] | Tmax [1, 3] [h] | half-life [1, 3] [h] | Cmax [1, 4] [ng/mL] | Tmax [1, 4] [h] | half-life [1, 4] [h] | AUC [1, 5] [ng·h/mL] | AUC [1, 6] [ng·h/mL] | AUC [1, 7] [ng·h/mL] | AUC [1, 8] [ng·h/mL] | Re (%) Postpreparation [2, 9] [%] | Recovery (%) Postpreparation [2, 9] [%] | Re (%) Postpreparation [2, 10] [%] | Recovery (%) Postpreparation [2, 10] [%] | Re (%) Postpreparation [2, 11] [%] | Recovery (%) Postpreparation [2, 11] [%] | Re (%) Short term [2, 12] [%] | Recovery (%) Short term [2, 12] [%] | Re (%) Freeze-thaw cycles [2, 12] [%] | Recovery (%) Freeze-thaw cycles [2, 12] [%] | Structure (SMILES) | further results |
| --- | --- | --- | --- | --- | --- | --- | --- | --- | --- | --- | --- | --- | --- | --- | --- | --- | --- | --- | --- | --- | --- |
| 355 ± 26.6 | 1.08 ± 0.2 | 8.14 ± 1.2 | 460 ± 30.2 | 0.58 ± 0.2 | 9.81 ± 2.15 | 2330 ± 214 | 2380 ± 224 | 3430 ± 294 | 3580 ± 396 | 9.76 | 102.50 | 8.54 | 104.63 | 8.92 | 97.21 | 8.40 | 101.73 | −9.85 | 97.39 | CC(C)=CCC[C@](C)(O[C@@H]1O[C@H](CO)[C@@H](O)[C@H](O)[C@H]1O)[C@H]1CC[C@]2(C)[C@@H]1[C@H](O)C[C@@H]1[C@@]3(C)CC[C@H](O)C(C)(C)[C@@H]3[C@@H](O[C@@H]3O[C@H](CO)[C@@H](O)[C@H](O)[C@H]3O[C@@H]3O[C@@H](C)[C@H](O)[C@@H](O)[C@H]3O)C[C@]12C [Re] | Re (%) Short term [2, 13]: −10.71%; Recovery (%) Short term [2, 13]: 97.30%; Re (%) Freeze-thaw cycles [2, 13]: 7.33%; Recovery (%) Freeze-thaw cycles [2, 13]: 104.07%; Re (%) Short term [2, 14]: 12.11%; Recovery (%) Short term [2, 14]: 99.25%; Re (%) Freeze-thaw cycles [2, 14]: 7.53%; Recovery (%) Freeze-thaw cycles [2, 14]: 94.12% |
| 461 ± 15.9 | 7 ± 1.1 | 15.6 ± 1.52 | 600 ± 53.6 | 6.67 ± 1.03 | 18.5 ± 2.61 | 5980 ± 313 | 6150 ± 328 | 8130 ± 454 | 8410 ± 488 | −6.47 | 96.10 | 6.86 | 101.85 | 9.35 | 101.65 | 7.53 | 101.65 | 7.75 | 101.95 | CC(C)=CCC[C@](C)(O[C@@H]1O[C@H](CO[C@@H]2O[C@H](CO)[C@@H](O)[C@H](O)[C@H]2O)[C@@H](O)[C@H](O)[C@H]1O)[C@H]1CC[C@]2(C)[C@@H]1[C@H](O)C[C@@H]1[C@@]3(C)CC[C@H](O[C@@H]4O[C@H](CO)[C@@H](O)[C@H](O)[C@H]4O[C@@H]4O[C@H](CO)[C@@H](O)[C@H](O)[C@H]4O)C(C)(C)[C@@H]3CC[C@]12C [Rb1] | Re (%) Short term [2, 13]: −7.55%; Recovery (%) Short term [2, 13]: 96.32%; Re (%) Freeze-thaw cycles [2, 13]: −6.90%; Recovery (%) Freeze-thaw cycles [2, 13]: 97.66%; Re (%) Short term [2, 14]: 7.95%; Recovery (%) Short term [2, 14]: 100.48%; Re (%) Freeze-thaw cycles [2, 14]: −4.48%; Recovery (%) Freeze-thaw cycles [2, 14]: 95.35% |
| 201 ± 7.3 | 7.67 ± 0.82 | 13.1 ± 2.61 | 283 ± 11.1 | 6.33 ± 0.82 | 14.2 ± 1.98 | 3010 ± 230 | 3320 ± 317 | 3870 ± 356 | 3960 ± 383 | −7.02 | 94.81 | 4.43 | 100.10 | 9.98 | 101.71 | 7.35 | 101.27 | 8.12 | 102.00 | CC(C)=CCC[C@](C)(O[C@@H]1O[C@H](CO)[C@@H](O)[C@H](O)[C@H]1O)[C@H]1CC[C@]2(C)[C@@H]1[C@H](O)C[C@@H]1[C@@]3(C)CC[C@H](O[C@@H]4O[C@H](CO)[C@@H](O)[C@H](O)[C@H]4O[C@@H]4O[C@H](CO)[C@@H](O)[C@H](O)[C@H]4O)C(C)(C)[C@@H]3CC[C@]12C [Rd] | Re (%) Short term [2, 13]: 8.64%; Recovery (%) Short term [2, 13]: 102.66%; Re (%) Freeze-thaw cycles [2, 13]: −11.93%; Recovery (%) Freeze-thaw cycles [2, 13]: 97.24%; Re (%) Short term [2, 14]: 10.24%; Recovery (%) Short term [2, 14]: 103.61%; Re (%) Freeze-thaw cycles [2, 14]: 8.87%; Recovery (%) Freeze-thaw cycles [2, 14]: 100.20% |
| 160 ± 18.8 | 7.67 ± 0.82 | 13.3 ± 1.58 | 264 ± 24.5 | 7.67 ± 0.82 | 15.6 ± 5.21 | 1210 ± 99.2 | 1230 ± 99.6 | 2460 ± 243 | 2520 ± 289 | 7.90 | 99.63 | −9.72 | 93.37 | 2.39 | 99.94 | 7.11 | 98.74 | 9.36 | 103.82 | CC(C)=CCC[C@](C)(O[C@@H]1O[C@H](CO[C@@H]2OC[C@H](O)[C@H](O)[C@H]2O)[C@@H](O)[C@H](O)[C@H]1O)[C@H]1CC[C@]2(C)[C@@H]1[C@H](O)C[C@@H]1[C@@]3(C)CC[C@H](O[C@@H]4O[C@H](CO)[C@@H](O)[C@H](O)[C@H]4O[C@@H]4O[C@H](CO)[C@@H](O)[C@H](O)[C@H]4O)C(C)(C)[C@@H]3CC[C@]12C [Rb2] | Re (%) Short term [2, 13]: −9.70%; Recovery (%) Short term [2, 13]: 93.67%; Re (%) Freeze-thaw cycles [2, 13]: −9.69%; Recovery (%) Freeze-thaw cycles [2, 13]: 94.21%; Re (%) Short term [2, 14]: −2.12%; Recovery (%) Short term [2, 14]: 95.33%; Re (%) Freeze-thaw cycles [2, 14]: 6.77%; Recovery (%) Freeze-thaw cycles [2, 14]: 100.41% |
